Experiment: Solubility of Compound I in water
Format: physicochemical
Description: Compositions prepared by routine methods, even if able to solubilize small amounts of Compound I, have proven unstable with Compound I falling out of solution, or in which Compound I is found to be subject to rapid degradation, or incompatible with a pharmaceutically acceptable capsule.

solubility in water: practically insoluble
SMILES: O=C(c1ccccn1)[C@]12Cc3cnn(-c4ccc(F)cc4)c3C=C1CCN(S(=O)(=O)c1ccc(C(F)(F)F)cc1)C2 [Compound I, (R)-(1-(4-fluorophenyl)-6-((4-(trifluoromethyl)phenyl)sulfonyl)-4,4a,5,6,7,8-hexahydro-1H-pyrazolo[3,4-g]isoquinolin-4a-yl)(pyridin-2-yl)methanone]

Source: US12370188B2, “Formulations of dazucorilant, a glucocorticoid receptor modulator” (Corcept Therapeutics Incorporated, priority 2022, dated 2025)
